Laboratory results as given in patent US20130302470A1, “L-amino-acid-containing feed additive in the form of fermentation-broth-based granules, and processes for its preparation” (EVONIK INDUSTRIES AG, priority 2012, published 2013).

Key:
[1] = tested on: rainbow trout; conditions: aquafeed with different lysine concentrations, FIG. 8; cited from earlier work
[2] = Hydrothermal stability, Experiment 9.1: extruded aquafeed (lysine recovery); type: physicochemical
From the text: (§1) So as to be able to assess what is known as the hydrothermal stability of the additives, and to compare them with each other, the production processes for producing pelleted and extruded aquafeed was reproduced on a small scale. In each case two feed blends which differ only in respect of the L-lysine additive were employed, mixture A being supplemented with 0.50% granular feed additive according to the present invention and mixture B with 0.32% Lys×HCl, which corresponded in each case to identical lysine base concentrations. The granular feed additive according to the invention contained 50.7% by weight of lysine in the form of lysine sulphate and 10% by weight of biomass.
The process parameters, such as, for example, residence time, temperature or water content, were set at values which are typically used in practice. […] The hydrothermal stabilities of the test additives upon processing in the processes in question can be assessed relative to one another via the recovery rates. […]
The hydrothermal stability of the granules according to the present invention was compared with the hydrothermal stability of Lys×HCl. The hydrothermal stability of the additives for extruded shrimp/prawn feed was examined and assessed during the entire respective process. […]
In the amino acid determination, the supplemented amino acid lysine was determined. […]

[3] = Hydrothermal stability, Experiment 9.2: pelleted aquafeed (lysine recovery); type: physicochemical; conditions: pelleting process
From the text: as §1
The process parameters, such as, for example, residence time, temperature or water content, were set at values which are typically used in practice. During the experiments, samples of the feed blend were taken after the respective individual process steps and subjected to extensive amino acid analysis. The hydrothermal stabilities of the test additives upon processing in the processes in question can be assessed relative to one another via the recovery rates.
The feed blends corresponded to representative state-of-the-art formulas. […]
In the amino acid determination, the supplemented amino acid lysine was determined. […] Thereafter, the amino acids were subjected to photometric quantitation at 570 nm. […]

In the case of Cl.NCCCC[C@H](N)C(=O)O [lysine HCl, L-lysine monohydrochloride], the “Effect of the nature of the lysine source on the weight increase of trout” value [1] is listed as “no effect on the weight increase”, the “Lysine lost during the processing to give shrimp/prawn feed” value ([2]; extrusion process) is listed as 8.6% and the “Stability of the lysine in the shrimp/prawn feed production process (comparison)” value ([2]; extrusion, lysine sulphate granules versus lysine HCl) is listed as “markedly more unstable”. For the same compound, the “Lysine loss upon pelleting” value [3] was “approximately 3.3%”.
